Experimental data as given in US20210040041A1, “QUINOLINE DERIVATIVES AND PREPARATION METHODS AND USES THEREOF” (DONGGUAN HEC PESTICIDES R&D CO., LTD., priority 2018, published 2021).

Legend:
Type in all cases: in vivo
[1] = test system: Diamondback moth; experiment: Test examples 1: leaf dipping method, cabbage leaves, Diamondback moth; conditions: Plutella xylostella, foliar, 72 h; 200 mg/L, third instar, after 3 days; read-out: mortality rate to Diamondback moth
Method: (§1) A certain amount of compound (0.0001 g) was weighed by using an analytical balance, and prepared to a mother liquid (1) with N,N-dimethylformamide containing 1% Tween-80 emulsifier, and then the mother liquid was diluted with distilled water for standby.
(§2) Leaf dipping method: the test targets were Diamondback moth, Tobacco Cutworm and Beet Armyworm. An appropriate amount of cabbage leaves were infiltrated in the prepared liquid and dried in the shade naturally, and then placed in a culture dish with filter paper; worms in the third instar were inoculated to the leaves, 10 heads per dish, and the dishes were cultured in an observation room at 24-27° C. The results were investigated after 3 days. […] The test concentration was 200 mg/L or 100 mg/L.

[2] = test system: Tobacco Cutworm; experiment: Test examples 1: leaf dipping method, cabbage leaves, Tobacco Cutworm; conditions: foliar, 72 h; 100 mg/L, third instar, after 3 days; read-out: mortality rate to Tobacco Cutworm
Method: as §1, §2

[3] = test system: Armyworm; experiment: Test examples 2: leaf dipping method, Armyworm; conditions: Mythimna separata, foliar, 72 h, after 3 days, read-out: The mortality rate (%) of the compound to Armyworm
Method: (§3) A certain amount of compound (0.0001 g) was weighed by using an analytical balance, and prepared to a mother liquid (1%) with N, N-dimethylformamide containing 1% Tween-80 emulsifier, and then the mother liquid was diluted with distilled water for standby.
(§4) Leaf dipping method: an appropriate amount of corn leaves/cabbage/cowpea were infiltrated in the prepared liquid and dried in the shade naturally, and then placed in a culture dish with filter paper; armyworm/Diamondback moth/Beet Armyworm larvae in the 2-3rd instar were inoculated to the corn leaves, 10 heads per dish, and the dishes were cultured in an observation room at 24-27° C. The results were investigated after 3 days. […] The test concentrations were 50 mg/L, 25 mg/L, 12.5 mg/L, 6.25 mg/L, 3.13 mg/L, 1.56 mg/L.

[4] = test system: Beet Armyworm; experiment: Test examples 1: leaf dipping method, cabbage leaves, Beet Armyworm; conditions: Spodoptera exigua, foliar, 72 h; 100 mg/L, third instar, after 3 days; read-out: mortality rate to Beet Armyworm
Method: as §1, §2

[5] = test system: Brown rice planthopper; experiment: Test examples 1: spraying leaves and stems, rice seedlings, Brown rice planthopper; conditions: 500 mg/L, after 72 hours; read-out: mortality rate to Brown rice planthopper
Method: as §1
Spraying Leaves and Stems: the test target was Brown rice planthopper. Rice seedlings inoculated with Brown rice planthopper were spayed under Potter spray tower, and then the Brown rice planthopper was placed and cultured in an observation room at 24-27° C. The results were investigated after 72 hours. The test concentration was 500 mg/L.

[6] = test system: Aphis medicaginis; experiment: Test examples 1: leaves dish spraying, Vicia faba leaves, Aphis medicaginis; conditions: 500 mg/L, after 48 hours, read-out: mortality rate to Aphis medicaginis
Method: as §1
Leaves Dish Spraying: the test targets were tetranychuscinnabarinus and Aphis craccivora Koch. Vicia faba leaves inoculated with Carmine Spider Mite and Aphis medicaginis were spayed under Potter spray tower, and then the Carmine Spider Mite was placed and cultured in anobservation room at 24-27° C.; the Aphis medicaginis was placed and cultured in an observation room at 20-22° C. The results were investigated after 48 hours. […] The test concentration was 500 mg/L.

[7] = test system: Diamondback moth; experiment: Test examples 2: leaf dipping method, Diamondback moth; conditions: Plutella xylostella, foliar, 72 h, after 3 days, read-out: The mortality rate (%) of the compound to Diamondback moth
Method: as §3, §4

[8] = test system: Armyworm; experiment: Test examples 1: leaf dipping method, corn leaves, Armyworm; conditions: Mythimna separata, foliar, 72 h; 200 mg/L, third instar larvae, after 3 days; read-out: mortality rate to Armyworm
Method: as §1
Leaf dipping method: the test target was Armyworm. An appropriate amount of corn leaves were infiltrated in the prepared liquid and dried in the shade naturally, and then placed in a culture dish with filter paper; armyworm larvae in the third instar were inoculated to the corn leaves, 10 heads per dish, and the dishes were cultured in an observation room at 24-27° C. The results were investigated after 3 days. […] The test concentration was 200 mg/L.

[9] = test system: Frankliniella occidentalis; experiment: Test examples 2: spraying of cowpea leaf discs, Frankliniella occidentalis; conditions: foliar, 24 h, after 1 day, read-out: The mortality rate (%) of the compound to Frankliniella occidentalis
Method: as §3
Spraying: cowpea leaves growing uniformity were punched with a punching bear to make leaf discs, leaf discs were placed onto degreased cotton blocks in a dish, two leaf discs per dish, and water was added into the dish and it was flush with the leaf discs, and the dish was for standby. Frankliniella occidentalis in the 2-3rd instar were inoculated to the ready leaf discs, more than 15 per disc. Which were spayed under Potter spray tower at a dose of 0.5 mL per treatment. The blank control was treated first, and then the above operations were repeated in the order of the test dose from low to high, with 2 repeats per treatment. After treatment, the samples were placed in the observation room, and the results were investigated 1 day later. […] The test concentrations were 20 mg/L, 10 mg/L, 5.0 mg/L, 2.5 mg/L, 1.25 mg/L, 0.625 mg/L.

[10] = test system: Beet Armyworm; experiment: Test examples 2: leaf dipping method, Beet Armyworm; conditions: Spodoptera exigua, foliar, 72 h, after 3 days, read-out: The mortality rate (%) of the compound to Beet Armyworm
Method: as §3, §4

[11] = test system: Diamondback moth; experiment: Test examples 3: leaf dipping method, cabbage, Diamondback moth; conditions: for mortality at 12.5 µg/mL / mortality at 25 µg/mL / mortality at 50 µg/mL: Plutella xylostella, foliar, 72 h, after 3 days, read-out: The mortality rate (%) to Diamondback moth; for mortality at 12.5 µg/mL: 12.5 mg/L; for mortality at 25 µg/mL: 25 mg/L; for mortality at 50 µg/mL: 50 mg/L
Method: (§5) A certain amount of compound (0.0001 g) was weighed by using an analytical balance, and prepared to a mother liquid (1) with N,N-dimethylformamide containing 1% Tween-80 emulsifier, and then the other liquid was diluted with distilled water or standby.
as §4, with “cabbage was” for “corn leaves/cabbage/cowpea were”, “Armyworm/Diamondback moth” for “armyworm/Diamondback moth/Beet Armyworm”, “inoculated,” for “inoculated to the corn leaves,”

[12] = test system: Armyworm; experiment: Test examples 3: leaf dipping method, cabbage, Armyworm
Method: as §5
as §4, with “cabbage was” for “corn leaves/cabbage/cowpea were”, “Armyworm/Diamondback moth” for “armyworm/Diamondback moth/Beet Armyworm”, “inoculated,” for “inoculated to the corn leaves,”

CCc1nc2cc(C)c(Oc3ccc(OC(F)(F)F)cc3)cc2c(OC(=O)OCCOC)c1C [Example 1, 2-ethyl-3,7-dimethyl-6-(4-(trifluoromethoxy)phenoxy)quinolin-4-yl (2-methoxyethyl)carbonate]
mortality at 200 µg/mL [1]: 100% | mortality at 100 µg/mL [2]: 100% | mortality at 12.5 µg/mL ([3]; 12.5 mg/L): 100% | mortality at 25 µg/mL ([3]; 25 mg/L): 100% | mortality at 50 µg/mL ([3]; 50 mg/L): 100% | mortality at 100 µg/mL [4]: 100% | mortality at 500 µg/mL [5]: 100% | mortality at 500 µg/mL [6]: 100% | mortality at 12.5 µg/mL ([7]; 12.5 mg/L): 100% | mortality at 25 µg/mL ([7]; 25 mg/L): 100% | mortality at 50 µg/mL ([7]; 50 mg/L): 100% | mortality at 200 µg/mL [8]: 100% | mortality at 5 µg/mL ([9]; 5 mg/L): 100% | mortality at 10 µg/mL ([9]; 10 mg/L): 100% | mortality at 20 µg/mL ([9]; 20 mg/L): 100% | mortality at 12.5 µg/mL ([10]; 12.5 mg/L): 90% | mortality at 25 µg/mL ([10]; 25 mg/L): 100% | mortality at 50 µg/mL ([10]; 50 mg/L): 100%

CCc1nc2cc(C)c(Oc3ccc(OC(F)(F)F)cc3)c(C)c2c(O)c1C [compound (42), 2-ethyl-3,5,7-trimethyl-6-(4-(trifluoromethoxy)phenoxy)quinolin-4-ol]
mortality at 12.5 µg/mL [11]: 100% | mortality at 25 µg/mL [11]: 100% | mortality at 50 µg/mL [11]: 100% | control effect on Diamondback moth ([11]; in words, different doses): significant control effect | control effect on Armyworm ([12]; in words, different doses): significant control effect

CCc1nc2cc(C)c(Oc3ccc(OC(F)(F)F)cc3)cc2c(O)c1C [compound NO. 119, reference compound]
mortality at 12.5 µg/mL [11]: 70% | mortality at 25 µg/mL [11]: 90% | mortality at 50 µg/mL [11]: 100% | mortality at 12.5 µg/mL ([12]; Mythimna separata, foliar, 72 h, 12.5 mg/L, after 3 days, read-out: The mortality rate (%) to Armyworm): 10% | mortality at 25 µg/mL ([12]; Mythimna separata, foliar, 72 h, 25 mg/L, after 3 days, read-out: The mortality rate (%) to Armyworm): 50% | mortality at 50 µg/mL ([12]; Mythimna separata, foliar, 72 h, 50 mg/L, after 3 days, read-out: The mortality rate (%) to Armyworm): 60%
